Data: ChEMBL document CHEMBL1687769, “High cefepime plasma concentrations and neurological toxicity in febrile neutropenic patients with mild impairment of renal function” (Antimicrob Agents Chemother, 2010)

Experiments:
[1] = Cmin in febrile neutropenic patient with GFR of <40 ml/min at 2 g administered as 30 mins infusion every 8 hrs measured after 4 days by HPLC analysis; assay type: ADME, organism-based; details: human, in vivo, iv, read-out: Cmin
[2] = Cmin in febrile neutropenic patient with neurological disorder at 2 g administered as 30 mins infusion every 8 hrs measured after 4 days by HPLC analysis; assay type: ADME, organism-based; details: human, in vivo, iv, read-out: Cmin
Homo sapiens [3] = test: Neurotoxicity in febrile neutropenic patient assessed as myoclonia at 2 g administered as 30 mins infusion every 8 hrs; assay type: toxicity, organism-based; details: in vivo, iv
Homo sapiens [4] = test: Neurotoxicity in febrile neutropenic patient assessed as confusion at 2 g administered as 30 mins infusion every 8 hrs; assay type: toxicity, organism-based; details: in vivo, iv
Homo sapiens [5] = test: Neurotoxicity in febrile neutropenic patient assessed as hallucinations at 2 g administered as 30 mins infusion every 8 hrs; assay type: toxicity, organism-based; details: in vivo, iv

- concentration at 4 days [1]: 11400 ng/mL
- concentration at 4 days [2]: 28000 ng/mL
SMILES: CO/N=C(\C(=O)N[C@@H]1C(=O)N2C(C(=O)[O-])=C(C[N+]3(C)CCCC3)CS[C@H]12)c1csc(N)n1 [CEFEPIME]
- Activity (Homo sapiens [3]): Toxic
- Activity (Homo sapiens [4]): Toxic
- Activity (Homo sapiens [5]): Toxic
